We go through one compound from paper PMC8887546, “Design and Synthesis of Brain Penetrant Glycopeptide Analogues of PACAP With Neuroprotective Potential for Traumatic Brain Injury and Parkinsonism” (Frontiers in drug discovery, 2022).

The structures appear in SMILES notation.

For one experiment, the target named is T1, human PAC1 receptor (Homo sapiens, UniProt P41586).
T1 construct: expressed in transfected cells; host or cells: CHO cells (G418 selection)
T1 sequence (P41586 21-468): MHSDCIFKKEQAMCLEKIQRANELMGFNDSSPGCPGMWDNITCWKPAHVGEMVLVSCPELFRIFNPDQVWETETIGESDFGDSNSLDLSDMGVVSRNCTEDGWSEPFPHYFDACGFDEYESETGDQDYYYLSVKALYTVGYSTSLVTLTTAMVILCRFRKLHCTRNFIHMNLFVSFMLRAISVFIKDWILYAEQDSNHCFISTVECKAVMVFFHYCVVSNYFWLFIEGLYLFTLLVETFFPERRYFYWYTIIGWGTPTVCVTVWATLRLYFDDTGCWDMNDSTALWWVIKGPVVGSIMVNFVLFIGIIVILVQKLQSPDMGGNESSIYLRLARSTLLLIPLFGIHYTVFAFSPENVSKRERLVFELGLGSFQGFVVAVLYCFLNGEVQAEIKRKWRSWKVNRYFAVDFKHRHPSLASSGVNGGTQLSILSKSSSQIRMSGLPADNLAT
Put plainly: cAMP stimulation in CHO cells expressing PAC1. It is filed as cell-based. Put shortly:
(§1)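 Serum-starved CHO cells expressing human receptors were pre-treated 20 min with 500 μM IBMX, then exposed to agonist concentration curves for 10 min in 500 μM IBMX. cAMP quantified by competition with bovine PKA and ^3H-cAMP (1 h, room temperature), scintillation read.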

A further experiment has as its target T2, human VPAC2 receptor (Homo sapiens, UniProt P41587).
T2 construct: expressed in transfected cells; host or cells: CHO cells (G418 selection)
T2 sequence (P41587 24-438): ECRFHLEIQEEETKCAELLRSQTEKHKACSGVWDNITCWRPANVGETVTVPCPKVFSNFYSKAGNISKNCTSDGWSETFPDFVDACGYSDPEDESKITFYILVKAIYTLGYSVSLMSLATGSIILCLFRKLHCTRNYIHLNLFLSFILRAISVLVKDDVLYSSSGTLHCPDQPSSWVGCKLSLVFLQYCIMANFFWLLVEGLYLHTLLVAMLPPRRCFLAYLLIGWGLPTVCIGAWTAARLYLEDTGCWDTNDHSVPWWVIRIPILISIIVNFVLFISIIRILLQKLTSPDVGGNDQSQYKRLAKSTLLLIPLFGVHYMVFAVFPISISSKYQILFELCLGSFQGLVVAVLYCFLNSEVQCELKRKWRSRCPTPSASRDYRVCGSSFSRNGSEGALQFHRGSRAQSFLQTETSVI
Put plainly: cAMP stimulation in CHO cells expressing VPAC2. It counts as cell-based. In outline:
as §1

In experiment [1] the test system is Sprague Dawley rats, 6-OHDA lesion. The experiment can be described thus: Striatal TH expression, semi-quantitative western analysis (study 2). It counts as in vivo, rat. The settings on record: more severe (40%) lesion, vs vehicle. How it is done: Rats were treated with 2LS98Lac or saline (vehicle) as outlined in the Schemes in Figures 9A,B via intraperitoneal (i.p.) injection (15 mg/kg). All animals were made hemi-parkinsonian with unilateral, striatal 6-hydroxydopamine (Sigma Aldrich, St. Louis, MO) injections. After surgery, behavioral assessments were done at 2- and 4-weeks post-surgery. 24 h after the last test animals were either euthanized and whole brains were harvested for future biochemical analysis or perfused and brains collected for immunohistochemistry and stereological assessment of tyrosine hydroxylase-positive (TH+) cells remaining in the SNc. In study 1: n = 16 each group were included, and all underwent the behavioral analysis: n = 16, and for the stereology in the SNc, n = 8 each group was used. In study 2: n = 23 each group were included. […] In the 2LS98Lac group, one video at 4 weeks was lost, reducing n = 22 in this specific analysis, and for the stereology, 2 brains were damaged during processing and could not be included in the stereology of the SNc, therefore […]. For biochemical subanalyses, n = 8 each group. For the microglial morphology subanalysis n = 7 each group.
FIGURE 9 | Evaluation of neuroprotection of the PACAP glycopeptide 2LS98Lac in rat Parkinson’s disease models. (A) Scheme for study 1, using a mild PD lesion. (B) Scheme for study 2, using a moderate PD lesion. […]

Regarding `[2H]C([2H])([2H])C([2H])(C([2H])([2H])[2H])[C@]([2H])(NC(=O)[C@H](C)NC(=O)[C@H](C)NC(=O)[C@H](CC(C)C)NC(=O)[C@H](Cc1ccc(O)cc1)NC(=O)[C@H](CCCCN)NC(=O)[C@H](CCCCN)NC(=O)[C@@]([2H])(NC(=O)[C@H](C)NC(=O)[C@H](CC(C)C)NC(=O)[C@H](CCC(N)=O)NC(=O)[C@H](CCCCN)NC(=O)[C@H](CCCNC(=N)N)NC(=O)[C@H](Cc1ccc(O)cc1)NC(=O)[C@H](CCCNC(=N)N)NC(=O)[C@H](CO)NC(=O)[C@H](Cc1ccc(O)cc1)NC(=O)[C@H](CO)NC(=O)[C@H](CC(=O)O)NC(=O)[C@@H](NC(=O)[C@H](Cc1ccccc1)NC(=O)[C@@H](NC(=O)CNC(=O)[C@H](CC(=O)O)NC(=O)[C@H](CO)NC(=O)[C@@H](N)Cc1c[nH]cn1)[C@@H](C)CC)[C@@H](C)O)C([2H])(C([2H])([2H])[2H])C([2H])([2H])[2H])C(=O)N[C@@H](CC(C)C)C(=O)N[C@@H](CO[C@@H]1O[C@H](CO)[C@@H](O[C@@H]2O[C@H](CO)[C@H](O)[C@H](O)[C@H]2O)[C@H](O)[C@H]1O)C(N)=O` [Compound 2LS98Lac], the EC50 at human PAC1 receptor stood at 0.72 nM; at human VPAC2 receptor it was 193 nM. Further, the Emax at human PAC1 receptor (CHO) came to 93%; at human VPAC2 receptor (CHO), 100%. The “Receptor selectivity ratio VPAC2/PAC1” value on human VPAC2 receptor (ratio of cAMP EC50 values) came out at 268.06. Further, the “Receptor selectivity ratio VPAC2/VPAC1” value on human VPAC2 receptor (ratio of cAMP EC50 values) is reported as 428.89. For the same compound, in experiment [1], the “Striatal TH” value is on record as “no significant difference”.
